Measured values taken from ChEMBL document CHEMBL2016536, “New triazole derivatives as antifungal agents: synthesis via click reaction, in vitro evaluation and molecular docking studies” (2012).
Converted amounts (≈) assume the structure as drawn.

Columns and labels:
Type in all cases: functional
[1] = system: Candida parapsilosis; assay: Antifungal activity against Candida parapsilosis by microbroth dilution method; conditions: Lodderomyces parapsilosis
[2] = system: Candida tropicalis; assay: Antifungal activity against Candida tropicalis by microbroth dilution method
[3] = system: Kluyveromyces marxianus; assay: Antifungal activity against Candida kefyr by microbroth dilution method
[4] = system: Trichophyton rubrum; assay: Antifungal activity against Trichophyton rubrum by microbroth dilution method
[5] = system: Aspergillus fumigatus; assay: Antifungal activity against Aspergillus fumigatus by microbroth dilution method
[6] = system: Candida albicans; assay: Antifungal activity against Candida albicans SC5314 after 24 hrs by microbroth dilution method; conditions: SC5314, 24 h
[7] = system: Candida albicans; assay: Antifungal activity against Candida albicans Y0109 after 24 hrs by microbroth dilution method; conditions: Y0109, 24 h
[8] = system: Cryptococcus neoformans; assay: Antifungal activity against Cryptococcus neoformans after 72 hrs by microbroth dilution method
[9] = system: Kluyveromyces marxianus; assay: Ratio of MIC80 for fluconazole to compound for Candida kefyr by microbroth dilution method
[10] = system: Candida tropicalis; assay: Ratio of MIC80 for fluconazole to compound for Candida tropicalis by microbroth dilution method
[11] = system: Candida albicans; assay: Ratio of MIC80 for fluconazole to compound for Candida albicans SC5314 after 24 hrs by microbroth dilution method

In the case of `OC(Cn1cncn1)(Cn1cncn1)c1ccc(F)cc1F` [FLUCONAZOLE], the MIC80 [1] was 0.5 µg/mL (≈ 1.63 µM), the MIC80 [2] was 1 µg/mL (≈ 3.27 µM) and the MIC80 [3] was 4 µg/mL (≈ 13.1 µM). The MIC80 [4] was 1 µg/mL (≈ 3.27 µM), the MIC80 [5] was 64 µg/mL (≈ 209 µM) and the MIC80 [6] was 0.5 µg/mL (≈ 1.63 µM). For the same compound, the MIC80 [7] was 0.5 µg/mL (≈ 1.63 µM) and the MIC80 [8] was 1 µg/mL (≈ 3.27 µM).
`OC(Cc1cn(Cc2ccc(Br)cc2)nn1)(Cn1cncn1)c1ccc(F)cc1F` (centres undefined) showed an MIC80 [1] of 0.125 µg/mL (≈ 0.263 µM), an MIC80 [2] of 0.25 µg/mL (≈ 0.526 µM) and an MIC80 [3] of 0.0625 µg/mL (≈ 0.131 µM). It also gave an MIC80 [4] of 0.125 µg/mL (≈ 0.263 µM), an MIC80 [5] of 8 µg/mL (≈ 16.8 µM) and an MIC80 [6] of 0.0625 µg/mL (≈ 0.131 µM). For the same compound, the MIC80 [7] was 0.0625 µg/mL (≈ 0.131 µM) and the MIC80 [8] was 0.25 µg/mL (≈ 0.526 µM).
In the case of `OC(Cc1cn(Cc2ccc(F)c(F)c2)nn1)(Cn1cncn1)c1ccc(F)cc1F` (centres undefined), the MIC80 [1] was 0.125 µg/mL (≈ 0.289 µM), the MIC80 [2] was 0.125 µg/mL (≈ 0.289 µM) and the MIC80 [3] was 0.25 µg/mL (≈ 0.578 µM). The MIC80 [4] was 0.25 µg/mL (≈ 0.578 µM), the MIC80 [5] was 16 µg/mL (≈ 37 µM) and the Ratio [9] was 64. For the same compound, the Ratio [10] was 16, the MIC80 [6] was 0.25 µg/mL (≈ 0.578 µM) and the MIC80 [7] was 0.125 µg/mL (≈ 0.289 µM). It also gave an MIC80 [8] of 1 µg/mL (≈ 2.31 µM).
`OC(Cc1cn(Cc2ccc(F)cc2)nn1)(Cn1cncn1)c1ccc(F)cc1F` (centres undefined) showed an MIC80 [1] of 0.125 µg/mL (≈ 0.302 µM), an MIC80 [2] of 0.25 µg/mL (≈ 0.603 µM) and an MIC80 [3] of 0.0625 µg/mL (≈ 0.151 µM). For the same compound, the MIC80 [4] was 0.125 µg/mL (≈ 0.302 µM), the MIC80 [5] was 32 µg/mL (≈ 77.2 µM) and the MIC80 [6] was under 0.125 µg/mL. It also gave an MIC80 [7] of 0.0625 µg/mL (≈ 0.151 µM) and an MIC80 [8] of 0.25 µg/mL (≈ 0.603 µM).
Work on `O=[N+]([O-])c1cccc(Cn2cc(CC(O)(Cn3cncn3)c3ccc(F)cc3F)nn2)c1` (centres undefined) yielded an MIC80 [1] of under 0.25 µg/mL, an MIC80 [2] of 0.125 µg/mL (≈ 0.283 µM) and an MIC80 [3] of 0.0625 µg/mL (≈ 0.142 µM). The MIC80 [4] was 0.25 µg/mL (≈ 0.566 µM), the MIC80 [5] was 32 µg/mL (≈ 72.5 µM) and the MIC80 [6] was under 0.125 µg/mL. For the same compound, the MIC80 [7] was 0.0625 µg/mL (≈ 0.142 µM) and the MIC80 [8] was 0.5 µg/mL (≈ 1.13 µM).
With `N#Cc1ccccc1Cn1cc(CC(O)(Cn2cncn2)c2ccc(F)cc2F)nn1` (centres undefined) the MIC80 [1] was 0.25 µg/mL (≈ 0.593 µM), the MIC80 [2] was 0.125 µg/mL (≈ 0.297 µM) and the MIC80 [3] was under 0.125 µg/mL. It also gave an MIC80 [4] of 0.25 µg/mL (≈ 0.593 µM), an MIC80 [5] of 16 µg/mL (≈ 38 µM) and an MIC80 [6] of 0.125 µg/mL (≈ 0.297 µM). The MIC80 [7] was 0.0625 µg/mL (≈ 0.148 µM) and the MIC80 [8] was 0.5 µg/mL (≈ 1.19 µM).
Work on `OC(Cc1cn(Cc2cc(Cl)cc(Cl)c2)nn1)(Cn1cncn1)c1ccc(F)cc1F` (centres undefined) yielded an MIC80 [1] of 0.25 µg/mL (≈ 0.537 µM), an MIC80 [2] of 0.25 µg/mL (≈ 0.537 µM) and an MIC80 [3] of 0.5 µg/mL (≈ 1.07 µM). For the same compound, the MIC80 [4] was under 0.125 µg/mL, the MIC80 [5] was 32 µg/mL (≈ 68.8 µM) and the MIC80 [6] was 0.25 µg/mL (≈ 0.537 µM). The MIC80 [7] was 0.125 µg/mL (≈ 0.269 µM) and the MIC80 [8] was 1 µg/mL (≈ 2.15 µM).
For `COc1ccc(OC)c(Cn2cc(CC(O)(Cn3cncn3)c3ccc(F)cc3F)nn2)c1` (centres undefined), the MIC80 [1] was 0.0625 µg/mL (≈ 0.137 µM), the MIC80 [2] was 0.125 µg/mL (≈ 0.274 µM) and the MIC80 [3] was 0.0625 µg/mL (≈ 0.137 µM). It also gave an MIC80 [4] of 0.0625 µg/mL (≈ 0.137 µM), an MIC80 [5] of 2 µg/mL (≈ 4.38 µM) and an MIC80 [6] of 0.0625 µg/mL (≈ 0.137 µM). It also gave an MIC80 [7] of 0.0156 µg/mL (≈ 0.0342 µM) and an MIC80 [8] of 0.0625 µg/mL (≈ 0.137 µM).
`OC(Cc1cn(Cc2ccccc2F)nn1)(Cn1cncn1)c1ccc(F)cc1F` (centres undefined) showed an MIC80 [1] of 0.125 µg/mL (≈ 0.302 µM), an MIC80 [2] of 0.0625 µg/mL (≈ 0.151 µM) and an MIC80 [3] of 0.0625 µg/mL (≈ 0.151 µM). It also gave an MIC80 [4] of 0.125 µg/mL (≈ 0.302 µM), an MIC80 [5] of 16 µg/mL (≈ 38.6 µM) and an MIC80 [6] of 0.0625 µg/mL (≈ 0.151 µM). The MIC80 [7] was 0.0625 µg/mL (≈ 0.151 µM) and the MIC80 [8] was 0.125 µg/mL (≈ 0.302 µM).
Compound `OC(Cc1cn(Cc2ccc(Cl)c(Cl)c2)nn1)(Cn1cncn1)c1ccc(F)cc1F` (centres undefined) has an MIC80 [1] of 0.125 µg/mL (≈ 0.269 µM), an MIC80 [2] of 0.125 µg/mL (≈ 0.269 µM) and an MIC80 [3] of 0.25 µg/mL (≈ 0.537 µM). The MIC80 [4] was 0.25 µg/mL (≈ 0.537 µM), the MIC80 [5] was 32 µg/mL (≈ 68.8 µM) and the MIC80 [6] was 0.25 µg/mL (≈ 0.537 µM). It also gave an MIC80 [7] of 0.125 µg/mL (≈ 0.269 µM) and an MIC80 [8] of 1 µg/mL (≈ 2.15 µM).
In the case of `OC(Cc1cn(Cc2ccccc2Cl)nn1)(Cn1cncn1)c1ccc(F)cc1F` (centres undefined), the MIC80 [1] was 0.0625 µg/mL (≈ 0.145 µM), the MIC80 [2] was 0.0625 µg/mL (≈ 0.145 µM) and the MIC80 [3] was 0.125 µg/mL (≈ 0.29 µM). The MIC80 [4] was 0.25 µg/mL (≈ 0.58 µM), the MIC80 [5] was 16 µg/mL (≈ 37.1 µM) and the MIC80 [6] was 0.0625 µg/mL (≈ 0.145 µM). It also gave an MIC80 [7] of 0.0625 µg/mL (≈ 0.145 µM) and an MIC80 [8] of 0.25 µg/mL (≈ 0.58 µM).
`Cc1ccc(Cn2cc(CC(O)(Cn3cncn3)c3ccc(F)cc3F)nn2)cc1` (centres undefined) gave an MIC80 [1] of 0.0625 µg/mL (≈ 0.152 µM), an MIC80 [2] of 0.125 µg/mL (≈ 0.305 µM) and an MIC80 [3] of 0.0156 µg/mL (≈ 0.038 µM). For the same compound, the MIC80 [4] was 0.0625 µg/mL (≈ 0.152 µM), the MIC80 [5] was 2 µg/mL (≈ 4.87 µM) and the Ratio [11] was 128. The Ratio [9] was 256, the MIC80 [6] was 0.0156 µg/mL (≈ 0.038 µM) and the MIC80 [7] was 0.0039 µg/mL (≈ 0.0095 µM). For the same compound, the MIC80 [8] was 0.125 µg/mL (≈ 0.305 µM).
Compound `OC(Cc1cn(Cc2ccc(Cl)cc2)nn1)(Cn1cncn1)c1ccc(F)cc1F` (centres undefined) has an MIC80 [1] of 0.125 µg/mL (≈ 0.29 µM), an MIC80 [2] of 0.5 µg/mL (≈ 1.16 µM) and an MIC80 [3] of 0.0625 µg/mL (≈ 0.145 µM). The MIC80 [4] was 0.125 µg/mL (≈ 0.29 µM), the MIC80 [5] was 4 µg/mL (≈ 9.28 µM) and the MIC80 [6] was under 0.125 µg/mL. It also gave an MIC80 [7] of 0.0625 µg/mL (≈ 0.145 µM) and an MIC80 [8] of 0.25 µg/mL (≈ 0.58 µM).
In the case of `O=[N+]([O-])c1ccc(Cn2cc(CC(O)(Cn3cncn3)c3ccc(F)cc3F)nn2)cc1` (centres undefined), the MIC80 [1] was 0.25 µg/mL (≈ 0.566 µM), the MIC80 [2] was 0.125 µg/mL (≈ 0.283 µM) and the MIC80 [3] was 0.0625 µg/mL (≈ 0.142 µM). The MIC80 [4] was 0.25 µg/mL (≈ 0.566 µM), the MIC80 [5] was 16 µg/mL (≈ 36.2 µM) and the MIC80 [6] was under 0.125 µg/mL. The MIC80 [7] was 0.0625 µg/mL (≈ 0.142 µM) and the MIC80 [8] was 0.5 µg/mL (≈ 1.13 µM).
`N#Cc1ccc(Cn2cc(CC(O)(Cn3cncn3)c3ccc(F)cc3F)nn2)cc1` (centres undefined) was tested, and the MIC80 [1] was 0.25 µg/mL (≈ 0.593 µM), the MIC80 [2] was 0.125 µg/mL (≈ 0.297 µM) and the MIC80 [3] was under 0.125 µg/mL. The MIC80 [4] was 0.25 µg/mL (≈ 0.593 µM), the MIC80 [5] was 32 µg/mL (≈ 75.9 µM) and the MIC80 [6] was 0.125 µg/mL (≈ 0.297 µM). The MIC80 [7] was 0.0625 µg/mL (≈ 0.148 µM) and the MIC80 [8] was 0.5 µg/mL (≈ 1.19 µM).
